Experimental data taken from patent US20230027026A1, “FUSED PYRIMIDINE COMPOUNDS, COMPOSITIONS AND MEDICINAL APPLICATIONS THEREOF” (JUBILANT BIOSYS LIMITED, priority 2019, published 2023).

Tests used:
[1] = target: EGFR (A767_dupASV) expressing Ba/F3 stable cell line (Homo sapiens, UniProt P00533, DUP767-769, cells depend on it); assay: Cellular proliferation (Alamar Blue) assay, EGFR A767_dupASV Ba/F3; assay type: cell-based; details: EGFR A767_dupASV Ba/F3, 72 hr, read-out: A767 IC50
Procedure, shortened: (§1)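 Viability is measured by Alamar Blue conversion over 3 h, read as fluorescence at 540/590 nm. Cells are treated for 72 h with compound spanning 10–0.0005 μM final in 3-fold dilutions, after overnight attachment; Ba/F3 cells go in at 15,000 per well in RPMI with 10% FBS.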

[2] = target: EGFR(D770_N771insSVD) expressing Ba/F3 stable cell line (Homo sapiens, UniProt P00533, DUP768-770, cells depend on it); assay: Cellular proliferation (Alamar Blue) assay, EGFR D770_N771insSVD Ba/F3; assay type: cell-based; details: EGFR D770_N771insSVD Ba/F3, 72 hr, read-out: D770 IC50
Procedure, shortened: as §1

A431 cells = assay: Cellular proliferation (Alamar Blue) assay, A431; assay type: cell-based; details: Homo sapiens, A-431; A431 cells, 72 hr, Alamar Blue; read-out: A431 IC50
Procedure, shortened: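 Seventy-two-hour growth assay with 3-fold compound titration (final 10–0.0005 μM) and Alamar Blue fluorescence end point, ex 540/em 590 nm.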

EGFR (T790M/L858R) = target: T1, EGFR (T790M/L858R) (Homo sapiens, UniProt P00533, L858R/T790M); assay: EGFR L858R/T790M enzyme inhibition assay (HTRF); assay type: biochemical; details: 5 μM ATP, 60 min, read-out: EGFR_L858R T790M_IC50_nM
T1 construct: GST; purchased Proqinase
Procedure, shortened: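 HTRF kinase assay with 2.5 nM GST-EGFR T790M/L858R, 0.5 μM biotinylated gastrin peptide and 5 μM ATP in HEPES pH 7.4 with Mg/Mn, 60 min at room temperature; compounds from 10 μM top. Phosphotyrosine detected by Eu anti-pTyr/SA-APC; IC50 from % inhibition.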

[3] = test system: H1975 cells (L858R_T790M mutant); assay: H1975 proliferation assay; assay type: cell-based; details: Homo sapiens, NCI-H1975; read-out: Proliferation_Assay H1975 cells-EC50_nM L858R_T790M_mutant
[4] = target: HER2 (A775_G776insYVMA) expressing Ba/F3 stable cell line (Homo sapiens, UniProt P04626, DUP772-775, cells depend on it); assay: Cellular proliferation (Alamar Blue) assay, HER2 YVMA Ba/F3; assay type: cell-based; details: HER2 A775_G776insYVMA Ba/F3, 72 hr, read-out: YVMA IC50
Procedure, shortened: as §1

T1 sequence (P00533 25-1210 T790M/L858R): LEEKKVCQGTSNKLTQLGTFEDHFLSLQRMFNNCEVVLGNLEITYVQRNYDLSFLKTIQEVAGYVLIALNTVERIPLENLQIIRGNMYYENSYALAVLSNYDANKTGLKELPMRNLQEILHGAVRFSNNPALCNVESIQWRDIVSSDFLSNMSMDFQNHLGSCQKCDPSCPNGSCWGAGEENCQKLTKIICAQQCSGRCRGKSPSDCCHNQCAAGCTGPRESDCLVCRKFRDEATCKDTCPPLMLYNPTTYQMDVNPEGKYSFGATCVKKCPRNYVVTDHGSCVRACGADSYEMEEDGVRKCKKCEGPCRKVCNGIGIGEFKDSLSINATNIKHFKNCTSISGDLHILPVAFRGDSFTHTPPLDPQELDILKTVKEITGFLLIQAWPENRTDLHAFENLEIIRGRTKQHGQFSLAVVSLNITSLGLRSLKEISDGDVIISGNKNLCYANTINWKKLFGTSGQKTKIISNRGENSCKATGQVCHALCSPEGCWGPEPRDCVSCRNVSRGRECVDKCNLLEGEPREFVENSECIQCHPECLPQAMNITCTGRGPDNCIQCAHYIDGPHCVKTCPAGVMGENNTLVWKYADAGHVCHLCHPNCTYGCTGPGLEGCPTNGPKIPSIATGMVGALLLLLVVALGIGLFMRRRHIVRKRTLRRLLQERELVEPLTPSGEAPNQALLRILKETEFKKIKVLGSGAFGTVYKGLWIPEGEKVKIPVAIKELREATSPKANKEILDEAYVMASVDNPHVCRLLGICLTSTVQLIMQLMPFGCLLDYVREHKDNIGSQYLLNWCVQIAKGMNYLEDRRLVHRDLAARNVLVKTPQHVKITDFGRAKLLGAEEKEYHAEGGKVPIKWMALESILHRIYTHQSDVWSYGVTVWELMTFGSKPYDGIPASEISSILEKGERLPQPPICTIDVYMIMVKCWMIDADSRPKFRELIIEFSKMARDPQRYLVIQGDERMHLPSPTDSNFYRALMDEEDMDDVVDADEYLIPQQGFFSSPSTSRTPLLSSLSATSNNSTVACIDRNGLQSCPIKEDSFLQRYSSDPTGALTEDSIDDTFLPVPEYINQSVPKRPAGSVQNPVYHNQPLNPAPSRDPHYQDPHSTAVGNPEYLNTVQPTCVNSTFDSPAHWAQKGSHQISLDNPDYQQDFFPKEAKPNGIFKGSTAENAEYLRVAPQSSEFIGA
Sequence of EGFR (A767_dupASV) expressing Ba/F3 stable cell line (P00533 with tags, fused parts or gaps DUP767-769): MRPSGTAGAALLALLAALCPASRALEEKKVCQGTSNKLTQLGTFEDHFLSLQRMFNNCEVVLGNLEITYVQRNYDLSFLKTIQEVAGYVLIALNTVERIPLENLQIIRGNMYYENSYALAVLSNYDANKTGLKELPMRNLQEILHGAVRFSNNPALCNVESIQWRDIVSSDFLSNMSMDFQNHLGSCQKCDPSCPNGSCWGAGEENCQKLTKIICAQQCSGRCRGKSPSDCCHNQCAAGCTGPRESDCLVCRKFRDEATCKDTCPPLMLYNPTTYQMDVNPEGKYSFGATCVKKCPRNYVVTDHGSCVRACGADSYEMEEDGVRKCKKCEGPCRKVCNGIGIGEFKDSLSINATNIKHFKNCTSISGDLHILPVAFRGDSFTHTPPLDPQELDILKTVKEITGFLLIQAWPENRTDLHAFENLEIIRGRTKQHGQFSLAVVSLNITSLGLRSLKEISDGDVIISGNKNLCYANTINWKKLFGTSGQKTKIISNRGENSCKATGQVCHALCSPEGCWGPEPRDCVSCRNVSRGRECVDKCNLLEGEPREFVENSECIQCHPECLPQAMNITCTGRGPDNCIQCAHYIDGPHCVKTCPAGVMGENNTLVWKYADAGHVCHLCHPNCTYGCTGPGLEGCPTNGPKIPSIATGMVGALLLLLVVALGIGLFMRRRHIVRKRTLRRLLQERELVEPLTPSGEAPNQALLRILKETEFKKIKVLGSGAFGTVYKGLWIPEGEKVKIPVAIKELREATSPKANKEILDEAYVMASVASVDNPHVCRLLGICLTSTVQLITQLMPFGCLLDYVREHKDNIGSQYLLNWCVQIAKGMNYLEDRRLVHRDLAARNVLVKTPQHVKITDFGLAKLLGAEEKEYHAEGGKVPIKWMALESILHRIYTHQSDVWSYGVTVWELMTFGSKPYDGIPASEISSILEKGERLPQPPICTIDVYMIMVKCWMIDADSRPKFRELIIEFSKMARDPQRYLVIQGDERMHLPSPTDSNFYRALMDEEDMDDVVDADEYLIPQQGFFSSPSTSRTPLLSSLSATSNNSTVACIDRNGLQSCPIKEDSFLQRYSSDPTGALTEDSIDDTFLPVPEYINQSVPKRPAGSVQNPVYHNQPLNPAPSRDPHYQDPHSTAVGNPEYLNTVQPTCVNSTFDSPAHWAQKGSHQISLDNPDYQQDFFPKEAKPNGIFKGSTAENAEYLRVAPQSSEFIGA
Sequence of EGFR(D770_N771insSVD) expressing Ba/F3 stable cell line (P00533 with tags, fused parts or gaps DUP768-770): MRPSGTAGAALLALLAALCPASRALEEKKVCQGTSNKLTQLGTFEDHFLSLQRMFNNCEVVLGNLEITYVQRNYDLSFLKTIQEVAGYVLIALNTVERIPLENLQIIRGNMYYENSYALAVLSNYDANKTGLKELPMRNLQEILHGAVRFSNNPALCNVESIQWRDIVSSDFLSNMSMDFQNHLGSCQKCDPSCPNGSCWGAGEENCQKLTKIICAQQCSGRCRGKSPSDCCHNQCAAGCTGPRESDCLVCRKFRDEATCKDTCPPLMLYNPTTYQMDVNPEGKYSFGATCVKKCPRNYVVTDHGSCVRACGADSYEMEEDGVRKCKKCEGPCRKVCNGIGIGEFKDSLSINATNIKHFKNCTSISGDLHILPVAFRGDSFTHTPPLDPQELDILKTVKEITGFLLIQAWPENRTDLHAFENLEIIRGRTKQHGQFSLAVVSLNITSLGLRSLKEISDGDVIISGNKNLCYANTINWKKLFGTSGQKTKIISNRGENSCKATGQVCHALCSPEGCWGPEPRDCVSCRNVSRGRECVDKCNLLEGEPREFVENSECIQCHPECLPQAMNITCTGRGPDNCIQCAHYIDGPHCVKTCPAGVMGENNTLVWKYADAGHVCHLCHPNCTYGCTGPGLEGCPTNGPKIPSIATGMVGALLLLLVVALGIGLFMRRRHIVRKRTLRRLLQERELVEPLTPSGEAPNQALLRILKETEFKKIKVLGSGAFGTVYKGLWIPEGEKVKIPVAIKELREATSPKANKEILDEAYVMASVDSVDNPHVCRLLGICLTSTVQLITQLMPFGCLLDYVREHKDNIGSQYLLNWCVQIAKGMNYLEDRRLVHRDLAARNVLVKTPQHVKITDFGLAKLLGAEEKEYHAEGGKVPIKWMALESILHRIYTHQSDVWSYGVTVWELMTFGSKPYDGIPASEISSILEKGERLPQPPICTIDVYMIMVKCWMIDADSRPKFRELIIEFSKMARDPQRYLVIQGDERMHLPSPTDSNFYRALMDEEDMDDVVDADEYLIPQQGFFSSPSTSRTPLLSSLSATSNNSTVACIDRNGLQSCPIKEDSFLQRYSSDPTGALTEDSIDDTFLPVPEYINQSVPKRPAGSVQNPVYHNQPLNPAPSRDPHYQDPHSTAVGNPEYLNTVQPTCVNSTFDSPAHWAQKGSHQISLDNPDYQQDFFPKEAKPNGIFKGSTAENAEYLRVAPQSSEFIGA
Sequence of HER2 (A775_G776insYVMA) expressing Ba/F3 stable cell line (P04626 with tags, fused parts or gaps DUP772-775): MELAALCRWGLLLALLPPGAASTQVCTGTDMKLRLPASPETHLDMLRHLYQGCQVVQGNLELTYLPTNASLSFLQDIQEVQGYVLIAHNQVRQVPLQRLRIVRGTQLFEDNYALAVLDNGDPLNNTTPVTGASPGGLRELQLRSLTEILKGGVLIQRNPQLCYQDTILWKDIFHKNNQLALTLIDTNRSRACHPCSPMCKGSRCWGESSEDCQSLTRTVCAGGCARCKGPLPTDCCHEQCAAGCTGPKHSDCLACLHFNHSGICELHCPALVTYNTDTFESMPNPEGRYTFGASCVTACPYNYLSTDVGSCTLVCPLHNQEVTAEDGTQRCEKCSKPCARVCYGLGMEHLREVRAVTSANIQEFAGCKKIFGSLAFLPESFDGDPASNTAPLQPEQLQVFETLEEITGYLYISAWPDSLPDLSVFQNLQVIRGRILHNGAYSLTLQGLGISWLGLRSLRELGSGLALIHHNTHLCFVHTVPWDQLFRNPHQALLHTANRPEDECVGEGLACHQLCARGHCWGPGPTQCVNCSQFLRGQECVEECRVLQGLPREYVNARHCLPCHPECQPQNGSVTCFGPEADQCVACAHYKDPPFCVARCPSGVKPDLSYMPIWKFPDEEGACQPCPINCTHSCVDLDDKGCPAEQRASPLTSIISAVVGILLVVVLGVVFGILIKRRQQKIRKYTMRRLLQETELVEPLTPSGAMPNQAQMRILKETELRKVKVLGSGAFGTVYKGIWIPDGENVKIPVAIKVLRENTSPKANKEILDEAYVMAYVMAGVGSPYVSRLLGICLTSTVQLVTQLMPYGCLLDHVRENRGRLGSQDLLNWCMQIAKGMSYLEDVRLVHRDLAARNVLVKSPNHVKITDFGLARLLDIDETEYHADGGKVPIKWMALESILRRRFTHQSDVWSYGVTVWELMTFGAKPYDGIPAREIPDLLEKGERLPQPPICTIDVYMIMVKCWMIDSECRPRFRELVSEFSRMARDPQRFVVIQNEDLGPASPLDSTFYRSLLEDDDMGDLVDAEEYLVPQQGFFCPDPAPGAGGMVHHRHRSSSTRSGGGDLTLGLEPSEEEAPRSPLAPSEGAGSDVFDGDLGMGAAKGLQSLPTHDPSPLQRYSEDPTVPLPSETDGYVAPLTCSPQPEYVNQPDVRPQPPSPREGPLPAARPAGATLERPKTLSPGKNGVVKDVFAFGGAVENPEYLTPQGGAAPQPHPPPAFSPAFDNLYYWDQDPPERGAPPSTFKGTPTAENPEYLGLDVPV

GI50 [1] [µM] | GI50 [2] [µM] | IC50 (A431 cells) [µM] | IC50 (EGFR (T790M/L858R)) [µM] | EC50 [3] [µM] | GI50 [4] [µM] | Compound
0.014 | 0.016 | 1.7 | 0.0026 | 0.0037 | 0.067 | C=CC(=O)Nc1cccc(N2C(=O)N(Cc3ccccc3)Cc3cnc(Nc4ccc(N5CCOCC5)nc4)nc32)c1 [Compound 46, N-(3-(3-benzyl-7-((6-morpholinopyridin-3-yl)amino)-2-oxo-3,4-dihydropyrimido[4,5-d]pyrimidin-1(2H)-yl)phenyl)acrylamide]
0.012 | 0.055 | 2.17 | 0.0078 | 0.079 | 0.154 | CN(C)C/C=C/C(=O)Nc1cccc(N2C(=O)N(c3ccccc3)Cc3cnc(Nc4cn(C)nc4Cl)nc32)c1 [Compound 35, (E)-N-(3-(7-((3-chloro-1-methyl-1H-pyrazol-4-yl)amino)-2-oxo-3-phenyl-3,4-dihydropyrimido[4,5-d]pyrimidin-1(2H)-yl)phenyl)-4-(dimethylamino)but-2-enamide]
0.009 | 0.009 | 1.89 | 0.001 | 0.0081 | 0.011 | C=CC(=O)Nc1cccc(N2C(=O)N(Cc3ccccc3)Cc3cnc(Nc4cn(CC(F)(F)F)nc4C)nc32)c1 [Compound 6, N-(3-(3-benzyl-7-((3-methyl-1-(2,2,2-trifluoroethyl)-1H-pyrazol-4-yl)amino)-2-oxo-3,4-dihydropyrimido[4,5-d]pyrimidin-1(2H)-yl)phenyl)acrylamide]
0.01 | 0.006 | 0.077 | 0.002 | 0.0018 | 0.023 | C=CC(=O)Nc1cccc(N2C(=O)N(Cc3ccccc3)Cc3cnc(Nc4cnn(CCOC)c4)nc32)c1 [Compound 15, N-(3-(3-benzyl-7-((1-(2-methoxyethyl)-1H-pyrazol-4-yl)amino)-2-oxo-3,4-dihydropyrimido[4,5-d]pyrimidin-1(2H)-yl)phenyl)acrylamide]
0.103 | 0.114 | 6.87 | 0.004 | 0.0176 | 0.038 | CC(C)n1cc(Nc2ncc3c(n2)N(c2cccc(NC(=O)/C=C/CN(C)C)c2)C(=O)N(Cc2ccccc2)C3)cn1 [Compound 9, (E)-N-(3-(3-benzyl-7-((1-isopropyl-1H-pyrazol-4-yl)amino)-2-oxo-3,4-dihydropyrimido[4,5-d]pyrimidin-1(2H)-yl)phenyl)-4-(dimethylamino)but-2-enamide]
0.351 | 0.476 | ≥ 10 | 0.0006 | 0.0021 | 0.178 | CN(C)C/C=C/C(=O)Nc1cccc(N2C(=O)N(Cc3ccccc3)Cc3cnc(Nc4cnn(C)c4)nc32)c1 [Compound 49, (E)-N-(3-(3-benzyl-7-((1-methyl-1H-pyrazol-4-yl)amino)-2-oxo-3,4-dihydropyrimido[4,5-d]pyrimidin-1(2H)-yl)phenyl)-4-(dimethylamino)but-2-enamide]
0.421 | 1.1 | 0.332 | 0.0025 | 0.034 | – | CN(C)C/C=C/C(=O)Nc1cccc(N2C(=O)N(c3ccc(F)cc3)Cc3cnc(Nc4cnn(C)c4)nc32)c1 [Compound 18, (E)-4-(dimethylamino)-N-(3-(3-(4-fluorophenyl)-7-((1-methyl-1H-pyrazol-4-yl)amino)-2-oxo-3,4-dihydropyrimido[4,5-d]pyrimidin-1(2H)-yl)phenyl)but-2-enamide]
2.26 | ≥ 10 | ≥ 10 | 0.0009 | 0.819 | – | C=CS(=O)(=O)Nc1cccc(N2C(=O)N(Cc3ccccc3)Cc3cnc(Nc4cnn(C)c4)nc32)c1 [Compound 47, N-(3-(3-benzyl-7-((1-methyl-1H-pyrazol-4-yl)amino)-2-oxo-3,4-dihydropyrimido[4,5-d]pyrimidin-1(2H)-yl)phenyl)ethenesulfonamide]
0.121 | 0.278 | 0.046 | 0.007 | 0.01 | – | Cc1cc(Nc2ncc3c(n2)N(c2cccc(NC(=O)/C=C/CN(C)C)c2)C(=O)N(Cc2ccccc2)C3)sn1 [Compound 22, (E)-N-(3-(3-benzyl-7-((3-methylisothiazol-5-yl)amino)-2-oxo-3,4-dihydropyrimido[4,5-d]pyrimidin-1(2H)-yl)phenyl)-4-(dimethylamino)but-2-enamide]
3.32 | 3.48 | 1.97 | 0.281 | 0.299 | – | CN(C)C/C=C/C(=O)NC1CCCC(N2C(=O)N(Cc3ccccc3)Cc3cnc(Nc4cnn(C)c4)nc32)C1 (centres unmarked) [Compound 31, (E)-N-(3-(3-benzyl-7-((1-methyl-1H-pyrazol-4-yl)amino)-2-oxo-3,4-dihydropyrimido[4,5-d]pyrimidin-1(2H)-yl)cyclohexyl)-4-(dimethylamino)but-2-enamide]
0.057 | 0.04 | 0.078 | 0.0024 | 0.0049 | – | C=CC(=O)Nc1cccc(N2C(=O)N(Cc3ccccc3)Cc3cnc(Nc4cnn(C)c4C)nc32)c1 [Compound 4, N-(3-(3-benzyl-7-((1,5-dimethyl-1H-pyrazol-4-yl)amino)-2-oxo-3,4-dihydropyrimido[4,5-d]pyrimidin-1(2H)-yl)phenyl)acrylamide]
≥ 10 | 9.35 | ≥ 10 | 0.112 | 0.637 | – | C=CC(=O)N1CC[C@H](N2C(=O)N(Cc3ccccc3)Cc3cnc(Nc4cn(C)nc4Cl)nc32)C1 (single isomer, unassigned) [Compound 39]
2.91 | 2.88 | 1.37 | 0.082 | 0.176 | – | Cc1cc(Nc2ncc3c(n2)N(C2CCCC(NC(=O)/C=C/CN(C)C)C2)C(=O)N(Cc2ccccc2)C3)sn1 (centres unmarked) [Compound 32, (E)-N-(3-(3-benzyl-7-((3-methylisothiazol-5-yl)amino)-2-oxo-3,4-dihydropyrimido[4,5-d]pyrimidin-1(2H)-yl)cyclohexyl)-4-(dimethylamino)but-2-enamide]
